In US12599685B2, “Tumor stroma imaging agent and preparation method thereof” (SHANGHAI UNIVERSITY OF MEDICINE & HEALTH SCIENCES, priority 2020, dated 2026):

How the values were obtained:
HT-1080-FAP cell line = experiment: Cell binding experiment of (S)-[18F]-AlF-NOTA-Bn-FAPI-4; assay type: cell-based, human; settings: 1 h incubation
Experimental: (S)—[^18F]—AlF-NOTA-Bn-FAPI-4 was adopted as an experimental group, AlF-FAPI-75+(S)—[^18F]—AlF-NOTA-Bn-FAPI-4 was adopted as a blockage group, and free ^18F^− was adopted as a control group.
A human fibrosarcoma cell HT-1080-FAP (HT-1080-FAP cell line) transfected by an FAP gene was activated to obtain an HT-1080-FAP cell suspension.
(§1) The experimental group: 2 mL of the HT-1080-FAP cell suspension was taken and washed three times with frozen PBS. A complete medium including the imaging agent (S)—[^18F]—AlF-NOTA-Bn-FAPI-4 (2.96 MBq, 80 μCi) was added, and the resulting mixture was incubated for 1 h. The cells were washed three times with frozen PBS, and 0.5 mL of NaOH-sodium dodecyl sulfate (SDS) (1M NaOH, 1% SDS) was added for lysis. The resulting cell lysate was finally collected, placed in a marked γ-counting tube, and subjected to γ-counting.
as §1, with “blockage” for “experimental”, “PBS. A complete medium including the blocker AlF-FAPI-75 was added, and the resulting mixture was incubated for 0.5 h.” for “PBS.”, “NaOH-SDS (1 M” for “NaOH-sodium dodecyl sulfate (SDS) (1M”
as §1, with “control” for “experimental”, “free ^18F^−” for “imaging agent (S)—[^18F]—AlF-NOTA-Bn-FAPI-4”, “NaOH-SDS (1 M” for “NaOH-sodium dodecyl sulfate (SDS) (1M”, “γ-counting. The final volumes of the groups were the same.” for “γ-counting.”

tumor-bearing mice = experiment: Biodistribution in tumor-bearing mice; assay type: in vivo
Experimental: Six mice were divided into an experimental group and a blockage group with 3 mice in each group. Mice in the experimental group each were injected with (S)—[^18F]—AlF-NOTA-Bn-FAPI-4 (3.7 MBq, 100 μCi) through a tail vein within 1 min, and 60 min later, the mice each were sacrificed by cutting a carotid artery for bloodletting. Mice in the blockage group each were injected with 100 μg of the blocker AlF-FAPI-75 (1,000 μg/mL) through a tail vein and injected with (S)—[^18F]—AlF-NOTA-Bn-FAPI-4 (3.7 MBq, 100 μCi) through a tail vein 30 min later, and 60 min later, the mice each were sacrificed by cutting a carotid artery for bloodletting. The heart, liver, lung, kidney, spleen, brain, and the like were collected, weighed, and tested for radioactivity. Finally, an (S)—[^18F]—AlF-NOTA-Bn-FAPI-4 radioactivity uptake rate (a percentage of uptake radioactivity per gram of tissue in the injected radioactivity, ID/g) in each of blood and various organs and a radioactivity ratio of a target organ to a non-target organ (T/NT) were calculated at different time points.

[1] = blockage group: 100 μg AlF-FAPI-75 i.v. 30 min before tracer, 1 h after injection
[2] = experimental group, 1 h after tail vein injection, 3.7 MBq
[3] = tumor-bearing mice, 1 h after injection

- Distribution, Blood (tumor-bearing mice; [1]): 0.13±0.10 % ID/g
- Distribution, Bone (tumor-bearing mice; [1]): 0.06 ± 0.01 % ID/g
- Distribution, Brain (tumor-bearing mice; [1]): 0.03 ± 0.01 % ID/g
- Distribution, Heart (tumor-bearing mice; [1]): 0.08 ± 0.05 % ID/g
- Distribution, Intestine (tumor-bearing mice; [1]): 0.16 ± 0.02 % ID/g
- Distribution, Kidney (tumor-bearing mice; [1]): 0.84±0.21 % ID/g
- Distribution, Liver (tumor-bearing mice; [1]): 0.08 ± 0.04 % ID/g
- Distribution, Lung (tumor-bearing mice; [1]): 0.28 ± 0.19 % ID/g
- Distribution, Muscle (tumor-bearing mice; [1]): 0.09 ± 0.03 % ID/g
- Distribution, Spleen (tumor-bearing mice; [1]): 0.16 ± 0.14 % ID/g
- Distribution, Tumor (tumor-bearing mice; [1]): 0.22±0.05 % ID/g
- Distribution, Blood (tumor-bearing mice; [2]): 0.10±0.04 % ID/g
- Distribution, Bone (tumor-bearing mice; [2]): 0.15 ± 0.03 % ID/g
- Distribution, Brain (tumor-bearing mice; [2]): 0.02 ± 0.01 % ID/g
- Distribution, Heart (tumor-bearing mice; [2]): 0.09 + 0.09 % ID/g
- Distribution, Intestine (tumor-bearing mice; [2]): 0.19 ± 0.06 % ID/g
- Distribution, Kidney (tumor-bearing mice; [2]): 0.94±0.20 % ID/g
- Distribution, Liver (tumor-bearing mice; [2]): 0.07 ± 0.05 % ID/g
- Distribution, Lung (tumor-bearing mice; [2]): 0.16 ± 0.08 % ID/g
- Distribution, Muscle (tumor-bearing mice; [2]): 0.16 ± 0.05 % ID/g
- Distribution, Spleen (tumor-bearing mice; [2]): 0.10 ± 0.01 % ID/g
- Distribution, Tumor (tumor-bearing mice; [2]): 1.12±0.06 % ID/g
- clearance in the blood (tumor-bearing mice; [3]): quickly cleared in the blood
- route of excretion (tumor-bearing mice; [3]): mainly excreted by the kidney
Substance: (S)—[^18F]—AlF-NOTA-Bn-FAPI-4
- absorption of tumor cells, experimental group relative to blockage group (HT-1080-FAP cell line; t=6.713, P<0.05): 3 times
- absorption of tumor cells, experimental group relative to control group (free 18F-) (HT-1080-FAP cell line; t=8.934, P<0.01): 33.31 times
- Radioactivity count value (HT-1080-FAP cell line; HT-1080-FAP cells, 2.96 MBq (80 μCi), no blocker): 5999.98 ± 864.12 γ count value/min
- Radioactivity count value (HT-1080-FAP cell line; blockage group: blocker AlF-FAPI-75 incubated 0.5 h, then imaging agent 2.96 MBq): 2000.01 ± 113.34 γ count value/min
